Data taken from patent publication US10508120B2, “TYK2 inhibitors and uses thereof” (Nimbus Lakshmi, Inc., priority 2017, dated 2019).
Read-outs that look alike come from different tables or passages of the source.

Experiments:
JAK2 kinase domain (JH1) = JAK2 kinase domain (JH1) (Homo sapiens (Human), UniProt O60674); assay: JAK2 Radioactive Kinase Assay; format: biochemical; details: for inhibition at 10 µM: read-out: JAK2 JH1% Inhibition @ 10 μM
Procedure, shortened: (§1)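 Single-point screen: 10 μM test compound, radioactive kinase read-out, percent inhibition reported for each kinase domain.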

[1] = target: human TYK2 (JH2domain-pseudokinase) (Homo sapiens (Human), UniProt P29597); assay: TYK2 JH2 Domain Binding Assay (KINOMEscan)
Procedure, shortened: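 Displacement of a DNA-tagged TYK2 JH2 fusion (human, aa G556–D888, HEK293 extract, <0.1 nM) from ligand-coated beads over 1 h at RT; binding buffer PBS/0.05% Tween 20/10 mM DTT/0.1% BSA.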

Tyk2 kinase domain (DH1) = Tyk2 kinase domain (DH1) (Homo sapiens (Human), UniProt P29597); assay: Tyk2 Radioactive Kinase Assay; format: biochemical; details: for inhibition at 10 µM: read-out: Tyk2 JH1% Inhibition @ 10 μM
Procedure, shortened: as §1

Sequence of Tyk2 kinase domain (DH1) (P29597 897-1176): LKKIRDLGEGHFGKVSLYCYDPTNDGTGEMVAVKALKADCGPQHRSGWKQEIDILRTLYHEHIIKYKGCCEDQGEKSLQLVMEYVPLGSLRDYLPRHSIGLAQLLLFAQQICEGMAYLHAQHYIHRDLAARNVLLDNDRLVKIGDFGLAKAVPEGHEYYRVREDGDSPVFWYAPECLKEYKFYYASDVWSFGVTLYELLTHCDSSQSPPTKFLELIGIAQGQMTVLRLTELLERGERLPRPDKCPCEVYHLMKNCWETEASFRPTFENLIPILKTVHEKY
Sequence of JAK2 kinase domain (JH1) (O60674 849-1124): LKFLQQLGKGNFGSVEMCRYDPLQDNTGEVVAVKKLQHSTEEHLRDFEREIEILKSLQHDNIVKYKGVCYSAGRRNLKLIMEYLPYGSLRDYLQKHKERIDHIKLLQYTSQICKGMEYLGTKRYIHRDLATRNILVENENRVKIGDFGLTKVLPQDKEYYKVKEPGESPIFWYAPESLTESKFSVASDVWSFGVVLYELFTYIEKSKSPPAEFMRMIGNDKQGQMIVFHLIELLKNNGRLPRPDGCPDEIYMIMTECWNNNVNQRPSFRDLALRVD
Sequence of human TYK2 (JH2domain-pseudokinase) (P29597 556-888): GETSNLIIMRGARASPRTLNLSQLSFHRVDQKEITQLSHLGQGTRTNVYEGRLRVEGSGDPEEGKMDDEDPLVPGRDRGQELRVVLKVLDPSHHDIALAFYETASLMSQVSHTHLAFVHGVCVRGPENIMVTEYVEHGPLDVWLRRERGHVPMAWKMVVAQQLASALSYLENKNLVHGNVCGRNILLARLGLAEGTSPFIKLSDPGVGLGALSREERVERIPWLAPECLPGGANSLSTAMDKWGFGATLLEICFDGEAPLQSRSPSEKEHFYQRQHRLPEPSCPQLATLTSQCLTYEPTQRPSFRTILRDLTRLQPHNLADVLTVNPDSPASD

SMILES	inhibition at 10 µM (JAK2 kinase domain (JH1); compound at 10 μM, ATP 10 μM) [%]	Kd [1] [nM]	inhibition at 10 µM (Tyk2 kinase domain (DH1); compound at 10 μM, ATP 10 μM) [%]	JAK2 JH1% Inhibition @ 10 μM (JAK2 kinase domain (JH1); compound at 10 μM, ATP 10 μM)	Tyk2 JH1% Inhibition @ 10 μM (Tyk2 kinase domain (DH1); compound at 10 μM, ATP 10 μM)	inhibition at 10 µM (JAK2 kinase domain (JH1); 10 μM compound, 10 μM ATP) [%]	inhibition at 10 µM (Tyk2 kinase domain (DH1); 10 μM compound, 10 μM ATP) [%]
CNc1cc(Nc2cccnc2OC)nc2c(C(=O)NC3CC(F)(F)C3)cnn12 [I-338, N-(3,3-difluorocyclobutyl)-5-((2-methoxypyridin-3-yl)amino)-7-(methylamino)pyrazolo[1,5-a]pyrimidine-3-carboxamide]	< 50	< 0.2	< 50				
CNc1cc(-c2nn(C(C)C)c3ncccc23)nc2c(C(=O)NC3CC3)cnn12 [I-440]	< 50	0.2 to 1	< 50				
CNc1cc(Nc2cccn([C@@H]3CCCOC3)c2=O)nc2c(C(=O)N[C@H]3CCC[C@H](O)C3)cnn12 [I-781]		< 0.2		A (percent inhibition at 10 μM lower than 50)	A (percent inhibition at 10 μM lower than 50)		
CNc1cc(Nc2cc(Cl)cn(C3CCOCC3)c2=O)nc2c(C(=O)N[C@@H]3CC[C@@H]3O)cnn12 [I-1069]		0.2 to 1				< 50	< 50
CNc1cc(Nc2cccn([C@H]3CCC[C@@H]3OC)c2=O)nc2c(C(=O)NC3CC3)cnn12 [I-437]		0.2 to 1		A (percent inhibition at 10 μM lower than 50)	A (percent inhibition at 10 μM lower than 50)		
CNc1cc(Nc2cc(C)c(=O)n(-c3cnn(C)c3)c2)nc2c(C(N)=O)cnn12 [I-287, 5-((5-methyl-1-(1-methyl-1H-pyrazol-4-yl)-6-oxo-1,6-dihydropyridin-3-yl)amino)-7-(methylamino)pyrazolo[1,5-a]pyrimidine-3-carboxamide]	< 50	1 to 10	< 50				
CNc1cc(-c2cn(CCN3CCOCC3)c3ncccc23)nc2c(C(=O)NCC3(CO)CC3)cnn12 [I-807, N-((1-(hydroxymethyl)cyclopropyl)methyl)-7-(methylamino)-5-(1-(2-morpholinoethyl)-1H-pyrrolo[2,3-b]pyridin-3-yl)pyrazolo[1,5-a]pyrimidine-3-carboxamide]	< 50	0.2 to 1	< 50				
CNc1cc(Nc2cccnc2OC)nc2c(C(=O)N[C@H]3CC[C@@]3(C)O)cnn12 [I-1015, N-((1S,2R)-2-hydroxy-2-methylcyclobutyl)-5-((2-methoxypyridin-3-yl)amino)-7-(methylamino)pyrazolo[1,5-a]pyrimidine-3-carboxamide]		1 to 10				< 50	< 50
CNc1cc(Nc2ccc3c(n2)OCCO3)nc2c(C(=O)NC3CC3)cnn12 [I-531]	< 50	0.2 to 1	< 50				
CNc1cc(Nc2cccn(-c3cccc(F)c3)c2=O)nc2c(C(=O)N[C@@H]3CC[C@H]3O)cnn12 [I-1023]		< 0.2				< 50	< 50
CCOc1ccc(-n2cccc(Nc3cc(NC)n4ncc(C(=O)NC5CC5)c4n3)c2=O)nn1 [I-118]	< 50	0.2 to 1	< 50				
CNc1cc(Nc2cccn(-c3ccccn3)c2=O)nc2c(C(=O)NC[C@@H](C)CO)cnn12 [I-731]	< 50	0.2 to 1	< 50				
NC(=O)c1cnn2c(N)cc(Nc3cccc(N4CCCC4)c3Cl)nc12 [I-23]	70 to 90	1 to 10	< 50				
CNc1cc(Nc2cccn([C@H]3CC[C@H](OC)CC3)c2=O)nc2c(C(=O)N[C@H]3COC[C@H]3O)cnn12 [I-832]		1 to 10				< 50	< 50
CNc1cc(Nc2cccn([C@@H]3CCCOC3)c2=O)nc2c(C(=O)N[C@H]3CC[C@H](O)C3)cnn12 (stereo in doubt) [I-702, N-(3-hydroxycyclopentyl)-7-(methylamino)-5-((2-oxo-1-((S)-tetrahydro-2H-pyran-3-yl)-1,2-dihydropyridin-3-yl)amino)pyrazolo[1,5-a]pyrimidine-3-carboxamide]	< 50	0.2 to 1	< 50				
CNc1cc(-c2nn(CCN3CCCCC3)c3ncccc23)nc2c(C(=O)NC3CC3)cnn12 [I-457]	< 50	1 to 10	< 50				
CNc1cc(Nc2cccc([C@H]3CCCOC3)n2)nc2c(C(=O)N[C@@H]3COC[C@@H]3O)cnn12 [I-691]		1 to 10		A (percent inhibition at 10 μM lower than 50)	A (percent inhibition at 10 μM lower than 50)		

SMILES	inhibition at 10 µM (JAK2 kinase domain (JH1); compound at 10 μM, ATP 10 μM) [%]	Kd [1] [nM]	inhibition at 10 µM (Tyk2 kinase domain (DH1); compound at 10 μM, ATP 10 μM) [%]	JAK2 JH1% Inhibition @ 10 μM (JAK2 kinase domain (JH1); compound at 10 μM, ATP 10 μM)	Tyk2 JH1% Inhibition @ 10 μM (Tyk2 kinase domain (DH1); compound at 10 μM, ATP 10 μM)	inhibition at 10 µM (JAK2 kinase domain (JH1); 10 μM compound, 10 μM ATP) [%]	inhibition at 10 µM (Tyk2 kinase domain (DH1); 10 μM compound, 10 μM ATP) [%]
Nc1cc(Nc2cccnc2OC(F)(F)F)nc2c(C(=O)NC3COC3)cnn12 [I-103, 7-amino-N-(oxetan-3-yl)-5-((2-(trifluoromethoxy)pyridin-3-yl)amino)pyrazolo[1,5-a]pyrimidine-3-carboxamide]	< 50	> 10	< 50				
CNc1cc(Nc2cccn([C@@H]3CCC[C@@H](OC)C3)c2=O)nc2c(C(=O)NCC3(CO)CC3)cnn12 [I-1087]		< 0.2				< 50	< 50
CNc1cc(Nc2cccn([C@@H]3CCC[C@H]3OC)c2=O)nc2c(C(=O)N[C@@H]3C[C@@H]3F)cnn12 [I-486]	< 50	0.2 to 1	< 50				
CNc1cc(-c2cn(C(C)C)c3ncccc23)nc2c(C(=O)N[C@@H]3C[C@H]3O)cnn12 (stereo in doubt) [I-653, N-((1R,2R)-2-hydroxycyclopropyl)-5-(1-isopropyl-1H-pyrrolo[2,3-b]pyridin-3-yl)-7-(methylamino)pyrazolo[1,5-a]pyrimidine-3-carboxamide]	< 50	< 0.2	< 50				
CCOc1ccc(-n2cccc(Nc3cc(NC)n4ncc(C(N)=O)c4n3)c2=O)nn1 [I-19]	< 50	1 to 10	< 50				
CNc1cc(Nc2cc(Cl)cn(C3CNC3)c2=O)nc2c(C(N)=O)cnn12 [I-40]	< 50	0.2 to 1	< 50				
CNc1cc(Nc2cccnc2OC)nc2c(C(=O)N[C@H]3CCC[C@H](O)C3)cnn12 [I-496]	< 50	< 0.2	< 50				
CNc1cc(Nc2cc(C)cn(-c3ccn(C)n3)c2=O)nc2c(C(=O)NC3CC3)cnn12 [I-271]	< 50	0.2 to 1	< 50				
CNc1cc(Nc2cccc([C@H]3CCCCO3)n2)nc2c(C(=O)N[C@@H]3CC[C@@H]3O)cnn12 [I-648]		0.2 to 1		A (percent inhibition at 10 μM lower than 50)	A (percent inhibition at 10 μM lower than 50)		
CNc1cc(Nc2cccn(C(C)C)c2=O)nc2c(C(=O)N[C@H]3CC[C@@H]3O)cnn12 [I-982]		0.2 to 1				< 50	< 50
CNc1cc(Nc2cccnc2OC2CC2)nc2c(C(=O)N[C@@H]3CC[C@@H](O)C3)cnn12 [I-490, 5-((2-cyclopropoxypyridin-3-yl)amino)-N-((1R,3R)-3-hydroxycyclopentyl)-7-(methylamino)pyrazolo[1,5-a]pyrimidine-3-carboxamide]	< 50	< 0.2	< 50				
CC(C)Oc1ncc(Cl)cc1Nc1cc(N)n2ncc(C(N)=O)c2n1 [I-79]	< 50	0.2 to 1	< 50				
CNc1cc(Nc2cccn(C3CCN(CCF)CC3)c2=O)nc2c(C(=O)N[C@@H]3CC[C@H]3O)cnn12 [I-845]		< 0.2				< 50	< 50
CNc1cc(Nc2cccn(C3CCOC3)c2=O)nc2c(C(N)=O)cnn12 (stereo not drawn) [I-108]	< 50	0.2 to 1	< 50				
CNc1cc(Nc2cccn([C@@H]3CCCN(C)C3)c2=O)nc2c(C(=O)NC3CC3)cnn12 [I-512]	< 50	< 0.2	< 50				
CNc1cc(Nc2cccnc2OC)nc2c(C(=O)N[C@H]3COC[C@H]3O)cnn12 [I-615]	< 50	< 0.2	< 50				
